Measurements from the NIST ThermoML archive (doi:10.1016/j.jct.2012.08.030).
± gives the expanded uncertainty stated by the source.

Experiment: xn = mol fraction of the nth substance listed
Details: 101.3 kPa, Liquid; for speed of sound: Sing-around technique in a fixed-path interferometer; for mass density: Vibrating tube method

CCCCn1cc[n+](C)c1.COS(=O)(=O)[O-] [1-butyl-3-methylimidazolium methyl sulfate] + CO
speed of sound (298.15 K, x1 = 0.0422): 1191.8 ± 0.66 m/s
speed of sound (298.15 K, x1 = 0.094): 1273.9 ± 0.75 m/s
speed of sound (298.15 K, x1 = 0.1857): 1384.7 ± 0.94 m/s
speed of sound (298.15 K, x1 = 0.2858): 1464 ± 1.2 m/s
speed of sound (298.15 K, x1 = 0.3729): 1512.2 ± 1.4 m/s
speed of sound (298.15 K, x1 = 0.4772): 1553.5 ± 1.7 m/s
speed of sound (298.15 K, x1 = 0.5769): 1583.1 ± 1.9 m/s
speed of sound (298.15 K, x1 = 0.6775): 1606.1 ± 2.2 m/s
speed of sound (298.15 K, x1 = 0.7947): 1627 ± 2.5 m/s
speed of sound (298.15 K, x1 = 0.8923): 1641.7 ± 2.8 m/s
speed of sound (298.15 K, x1 = 0.9526): 1649.4 ± 3 m/s
speed of sound (298.15 K, x1 = 1): 1654.6 ± 3.1 m/s
mass density (298.15 K, x1 = 0.0422): 871.193 ± 0.34 kg/m3
mass density (298.15 K, x1 = 0.094): 942.4 ± 0.23 kg/m3
mass density (298.15 K, x1 = 0.1857): 1027.84 ± 0.2 kg/m3
mass density (298.15 K, x1 = 0.2858): 1084.79 ± 0.28 kg/m3
mass density (298.15 K, x1 = 0.3729): 1118.3 ± 0.43 kg/m3
mass density (298.15 K, x1 = 0.4772): 1146.38 ± 0.67 kg/m3
mass density (298.15 K, x1 = 0.5769): 1166.12 ± 0.95 kg/m3
mass density (298.15 K, x1 = 0.6775): 1181.29 ± 1.3 kg/m3
mass density (298.15 K, x1 = 0.7947): 1194.94 ± 1.8 kg/m3
mass density (298.15 K, x1 = 0.8923): 1204.14 ± 2.3 kg/m3
mass density (298.15 K, x1 = 0.9526): 1208.98 ± 2.6 kg/m3
mass density (298.15 K, x1 = 1): 1212.06 ± 2.8 kg/m3
speed of sound (303.15 K, x1 = 0.0422): 1176.5 ± 0.65 m/s
speed of sound (303.15 K, x1 = 0.094): 1259.6 ± 0.75 m/s
speed of sound (303.15 K, x1 = 0.1857): 1371.1 ± 0.94 m/s
speed of sound (303.15 K, x1 = 0.2858): 1450.9 ± 1.2 m/s
speed of sound (303.15 K, x1 = 0.3729): 1499.3 ± 1.4 m/s
speed of sound (303.15 K, x1 = 0.4772): 1540.9 ± 1.7 m/s
speed of sound (303.15 K, x1 = 0.5769): 1570.7 ± 1.9 m/s
speed of sound (303.15 K, x1 = 0.6775): 1593.8 ± 2.2 m/s
speed of sound (303.15 K, x1 = 0.7947): 1614.7 ± 2.5 m/s
speed of sound (303.15 K, x1 = 0.8923): 1629.5 ± 2.8 m/s
speed of sound (303.15 K, x1 = 0.9526): 1637.2 ± 3 m/s
speed of sound (303.15 K, x1 = 1): 1642.2 ± 3.1 m/s
mass density (303.15 K, x1 = 0.0422): 866.765 ± 0.34 kg/m3
mass density (303.15 K, x1 = 0.094): 938.21 ± 0.23 kg/m3
mass density (303.15 K, x1 = 0.1857): 1023.91 ± 0.19 kg/m3
mass density (303.15 K, x1 = 0.2858): 1081.04 ± 0.28 kg/m3
mass density (303.15 K, x1 = 0.3729): 1114.64 ± 0.42 kg/m3
mass density (303.15 K, x1 = 0.4772): 1142.82 ± 0.66 kg/m3
mass density (303.15 K, x1 = 0.5769): 1162.61 ± 0.95 kg/m3
mass density (303.15 K, x1 = 0.6775): 1177.83 ± 1.3 kg/m3
mass density (303.15 K, x1 = 0.7947): 1191.5 ± 1.8 kg/m3
mass density (303.15 K, x1 = 0.8923): 1200.73 ± 2.2 kg/m3
mass density (303.15 K, x1 = 0.9526): 1205.6 ± 2.6 kg/m3
mass density (303.15 K, x1 = 1): 1208.7 ± 2.8 kg/m3
speed of sound (308.15 K, x1 = 0.0422): 1161.3 ± 0.65 m/s
speed of sound (308.15 K, x1 = 0.094): 1245.1 ± 0.74 m/s
speed of sound (308.15 K, x1 = 0.1857): 1357.5 ± 0.94 m/s
speed of sound (308.15 K, x1 = 0.2858): 1437.7 ± 1.2 m/s
speed of sound (308.15 K, x1 = 0.3729): 1486.4 ± 1.4 m/s
speed of sound (308.15 K, x1 = 0.4772): 1528.2 ± 1.7 m/s
speed of sound (308.15 K, x1 = 0.5769): 1558.2 ± 1.9 m/s
speed of sound (308.15 K, x1 = 0.6775): 1581.4 ± 2.2 m/s
speed of sound (308.15 K, x1 = 0.7947): 1602.4 ± 2.5 m/s
speed of sound (308.15 K, x1 = 0.8923): 1617.2 ± 2.8 m/s
speed of sound (308.15 K, x1 = 0.9526): 1624.9 ± 3 m/s
speed of sound (308.15 K, x1 = 1): 1630 ± 3.1 m/s
mass density (308.15 K, x1 = 0.0422): 862.332 ± 0.34 kg/m3
mass density (308.15 K, x1 = 0.094): 934.013 ± 0.23 kg/m3
mass density (308.15 K, x1 = 0.1857): 1019.99 ± 0.19 kg/m3
mass density (308.15 K, x1 = 0.2858): 1077.29 ± 0.28 kg/m3
mass density (308.15 K, x1 = 0.3729): 1111 ± 0.42 kg/m3
mass density (308.15 K, x1 = 0.4772): 1139.26 ± 0.66 kg/m3
mass density (308.15 K, x1 = 0.5769): 1159.12 ± 0.94 kg/m3
mass density (308.15 K, x1 = 0.6775): 1174.38 ± 1.3 kg/m3
mass density (308.15 K, x1 = 0.7947): 1188.07 ± 1.8 kg/m3
mass density (308.15 K, x1 = 0.8923): 1197.33 ± 2.2 kg/m3
mass density (308.15 K, x1 = 0.9526): 1202.23 ± 2.5 kg/m3
mass density (308.15 K, x1 = 1): 1205.35 ± 2.8 kg/m3
